Assay results reported in US8809280B2, “Therapeutic peptides” (Lytix Biopharma AS, priority 2009, dated 2014).
≈ marks a conversion by molar mass, not a printed value.

Legend:
Format in all cases: cell-based
MRC-5 [1] = test: Toxicity assay MRC-5; conditions: highest concentration tested 500 μg/ml
Experimental: Cells for Toxicity Studies Used MRC-5 and human RBC MRC-5 assay: 500 μg/ml

A20 = test: cells
Experimental: Cancer Cell Lines A20 or MethA Anticancer assays: 500 μg/ml

UT-SCC-24A = test: Compound 7 panel screening; conditions: Homo sapiens, tongue squamous oral carcinoma
Experimental: (§1) Compound 7 described in Example 2 was screened against two normal cell lines and nine cancer cell lines.
(§2) All cell lines were of human origin. Stock solution of compound 7 was dissolved in assay media containing 10% DMSO. Three parallel experiments were performed against each cell line.

HUV-EC-C = test: Compound 7 panel screening; conditions: Homo sapiens, umbilical vein, normal, endothelial
Experimental: as §1, §2

MRC-5 [2] = test: Compound 7 panel screening; conditions: Homo sapiens, MRC5, lung, normal, fibroblast
Experimental: as §1, §2

Ramos = test: Compound 7 panel screening; conditions: Homo sapiens, Burkitt's lymphoma
Experimental: as §1, §2

OVCAR-3 = test: Compound 7 panel screening; conditions: Homo sapiens, ovary adenocarcinoma
Experimental: as §1, §2

HT-29 = test: Compound 7 panel screening; conditions: Homo sapiens, colon colorectal adenocarcinoma
Experimental: as §1, §2

DU-145 = test: Compound 7 panel screening; conditions: Homo sapiens, prostate carcinoma
Experimental: as §1, §2

Kelly = test: Compound 7 panel screening; conditions: Homo sapiens, neuroblastoma
Experimental: as §1, §2

MDA-MB435 = test: Compound 7 panel screening; conditions: Homo sapiens, MDA-MB-435, breast carcinoma
Experimental: as §1, §2

UT-SCC-34A = test: Compound 7 panel screening; conditions: Homo sapiens, supraglottic larynx squamous oral carcinoma
Experimental: as §1, §2

FEMX = test: Compound 7 panel screening; conditions: Homo sapiens, Fem-X, skin melanoma
Experimental: as §1, §2

[3] = test system: methicillin resistant Staphylococcus epidermidis (ATCC 27626); test: microbe, parasite or virus in culture; conditions: Example 2, values separated by / are repeat tests
Outline: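 Exponentially grown bacteria (2% peptone water) at 2×10^6 cfu/ml exposed in duplicate to di-TFA salts at 0.5–200 μg/ml. Growth or no growth judged by well turbidity; no-peptide and gentamicin controls included.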

[4] = test system: methicillin resistant Staphylococcus aureus (ATCC 33591); test: microbe, parasite or virus in culture; conditions: Staphylococcus aureus, ATCC 33591 / MRSA, Example 2; values separated by / are repeat tests; read-out: Antimicrobial potency (MIC) MRSA
Outline: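 Di-TFA salts tested in duplicate at 200 down to 0.5 μg/ml against exponentially grown bacteria at 2×10^6 cfu/ml. Growth judged by well turbidity, with no-peptide and gentamicin controls.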

human red blood cells = test: cells; conditions: Homo sapiens, Erythrocyte; Example 2; highest concentration tested 1000 μg/ml; * low solubility in the test media; read-out: Toxicity RBC (EC50)
Outline: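 Washed heparinized RBCs, diluted to 10% hematocrit then to 1% v/v final, incubated with compounds in PBS (1–1000 μg/mL) for 1 h at 37 °C with agitation. Hemoglobin release read at 405 nm against PBS (0%) and 0.1% Triton X-100 (100%); value reported is concentration giving 50% hemolysis.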

[5] = test system: Escherichia coli (ATTC 25922); test: microbe, parasite or virus in culture; conditions: Escherichia coli, Example 2; values separated by / are repeat tests; read-out: Antimicrobial potency (MIC) E. coli
Outline: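 Broth dilution in 2% Bacto Peptone water, inoculum 2×10^6 cfu/ml of exponential-phase bacteria; compounds (di-TFA salts) tested in duplicate at 200 down to 0.5 μg/ml. Growth judged by well turbidity, with no-peptide negative and gentamicin positive controls.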

[6] = test system: Staphylococcus aureus (ATTC 25923); test: microbe, parasite or virus in culture; conditions: Example 2, values separated by / are repeat tests
Outline: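 Di-TFA salts tested in duplicate at 0.5–200 μg/ml against exponential-phase bacteria at 2×10^6 cfu/ml grown in 2% peptone water. Growth judged by well turbidity, with no-peptide and gentamicin controls.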

Anticancer potency (IC50) A20 (A20; Example 2, highest concentration tested 500 μg/ml, * low solubility in the test media (Table 2)): 0.7 mg/L
IC50 (UT-SCC-24A): 14.2 mg/L (≈ 34.5 µM)
IC50 (Ramos): 2.61 mg/L (≈ 6.34 µM)
IC50 (OVCAR-3): 18.1 mg/L (≈ 43.9 µM)
IC50 (HT-29): 15.4 mg/L (≈ 37.5 µM)
IC50 (DU-145): 15.2 mg/L (≈ 37 µM)
IC50 (Kelly): 3.9 mg/L (≈ 9.48 µM)
IC50 (MDA-MB435): 6.54 mg/L (≈ 15.9 µM)
IC50 (UT-SCC-34A): 16.2 mg/L (≈ 39.3 µM)
IC50 (FEMX): 17.1 mg/L (≈ 41.6 µM)
Antimicrobial potency (MIC) MRSE [3]: 5 mg/L
MIC ([3]; Staphylococcus epidermidis, ATCC 27626 / MRSE, read-out: Antimicrobial potency (MIC) MRSE): 2.5 mg/L (≈ 6.07 µM)
MIC [4]: 5 mg/L (≈ 12.1 µM)
MIC [5]: 15 mg/L (≈ 36.4 µM)
Antimicrobial potency (MIC) S. aureus [6]: 5 mg/L
MIC ([6]; Staphylococcus aureus, read-out: Antimicrobial potency (MIC) S. aureus): 2.5 mg/L (≈ 6.07 µM)
Compound: NCCNC(=O)C(CN)(Cc1ccc2ccccc2c1)Cc1ccc2ccccc2c1 [Compound 7, 3-amino-N-(2-aminoethyl)-2,2-bis(naphthalen-2-ylmethyl)propanamide]
Toxicity MRC-5 (MRC-5 [1]; Example 2): 14 µg/mL
IC50 (MRC-5 [1]; Homo sapiens, MRC5, Example 2): 13.5 mg/L (≈ 32.8 µM)
Anti-Cancer Selectivity MRC-5/A20 (A20; ratio of MRC-5 to A20 values): 19.3-20
Anti-Cancer Selectivity RBC/A20 (A20; ratio of RBC EC50 to A20 IC50): 417
IC50 (HUV-EC-C): 3.81 mg/L (≈ 9.26 µM)
IC50 (MRC-5 [2]): 8.21 mg/L (≈ 19.9 µM)
EC50 (human red blood cells): 292 mg/L (≈ 710 µM)
